This note sets out measurements from PMC10041525, “New Dual Inhibitors of Bacterial Topoisomerases with Broad-Spectrum Antibacterial Activity and In Vivo Efficacy against Vancomycin-Intermediate Staphylococcus aureus” (Journal of Medicinal Chemistry, 2023).

The term IC50 denotes the midpoint of a concentration-inhibition curve. Low readings indicate inhibition by little substance, high ones a need for much substance.

The target in assay [1] is T1, topo IV from E. coli (Escherichia coli, UniProt P20083).
T1 construct: purchased Inspiralis
T1 sequence (P0AFI2 whole entry): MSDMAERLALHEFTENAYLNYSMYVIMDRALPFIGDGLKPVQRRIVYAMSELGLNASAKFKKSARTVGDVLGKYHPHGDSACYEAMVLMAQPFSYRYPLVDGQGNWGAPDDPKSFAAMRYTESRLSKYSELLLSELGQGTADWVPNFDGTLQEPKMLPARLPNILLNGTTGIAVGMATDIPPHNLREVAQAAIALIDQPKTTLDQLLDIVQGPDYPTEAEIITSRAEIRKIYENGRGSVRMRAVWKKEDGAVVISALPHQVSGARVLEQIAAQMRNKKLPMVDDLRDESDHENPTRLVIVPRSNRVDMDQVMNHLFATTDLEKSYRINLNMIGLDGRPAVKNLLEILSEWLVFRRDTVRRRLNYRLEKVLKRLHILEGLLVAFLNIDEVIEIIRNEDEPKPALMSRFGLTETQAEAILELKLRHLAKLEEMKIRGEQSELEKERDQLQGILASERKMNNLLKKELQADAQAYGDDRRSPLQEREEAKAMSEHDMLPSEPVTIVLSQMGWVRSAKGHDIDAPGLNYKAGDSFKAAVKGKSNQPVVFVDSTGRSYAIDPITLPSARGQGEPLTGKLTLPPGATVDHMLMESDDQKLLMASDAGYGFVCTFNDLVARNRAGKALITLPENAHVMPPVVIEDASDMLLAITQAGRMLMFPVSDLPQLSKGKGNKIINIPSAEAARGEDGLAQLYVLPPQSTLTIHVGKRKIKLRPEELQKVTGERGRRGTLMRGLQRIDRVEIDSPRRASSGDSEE
T1 sequence (P20083 whole entry): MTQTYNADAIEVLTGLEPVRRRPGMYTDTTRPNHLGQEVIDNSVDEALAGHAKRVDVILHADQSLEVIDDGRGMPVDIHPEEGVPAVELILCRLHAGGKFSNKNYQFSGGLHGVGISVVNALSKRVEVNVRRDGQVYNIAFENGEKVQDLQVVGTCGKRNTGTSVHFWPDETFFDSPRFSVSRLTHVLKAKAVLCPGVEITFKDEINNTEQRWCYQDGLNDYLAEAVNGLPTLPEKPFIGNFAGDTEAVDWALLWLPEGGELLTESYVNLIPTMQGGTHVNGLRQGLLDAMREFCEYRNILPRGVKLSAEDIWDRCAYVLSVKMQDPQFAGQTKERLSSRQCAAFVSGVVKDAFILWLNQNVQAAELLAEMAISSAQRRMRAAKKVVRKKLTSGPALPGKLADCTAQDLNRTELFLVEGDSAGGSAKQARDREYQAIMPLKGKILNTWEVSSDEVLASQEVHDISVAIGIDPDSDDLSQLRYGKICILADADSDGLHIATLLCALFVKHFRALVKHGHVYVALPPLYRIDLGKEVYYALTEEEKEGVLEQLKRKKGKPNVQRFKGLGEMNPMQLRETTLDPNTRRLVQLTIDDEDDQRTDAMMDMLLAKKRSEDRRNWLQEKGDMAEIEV
Briefly: relaxation HTS plate assay. The class given is biochemical. The conditions noted are these: IC50 [nM] E. coli TopoIV. The method, then:
(§1) All compounds were tested for their inhibitory activities against DNA gyrase and topo IV from E. coli in supercoiling and relaxation high-throughput plate assays, respectively. Our new series of inhibitors were then tested against a panel of Gram-positive and Gram-negative bacteria.
(§2) Seven concentrations of the inhibitors were used to determine IC50 values which were then calculated with GraphPad Prism 6.0 software. Three independent measurements were performed to determine IC50 values, and mean values are reported as the final result.

The subject of assay [2] is Enterococcus faecalis ATCC 29212. Briefly: MIC broth microdilution (CLSI). It counts as cell-based, E. faecalis. The note with it: Enterococcus faecalis, ATCC29212; read-out: MIC. The method, then: (§3) MICs (Tables 1 and S1–S3) were determined with a standard serial broth microdilution technique according to Clinical and Laboratory Standards Institute (CLSI) guidelines.[45] Cation-adjusted Mueller Hinton broth 2 (MHBII) was used for bacterial growth under standard laboratory conditions and for antimicrobial susceptibility tests. MHBII broth was prepared by dissolving 22 g of MHBII powder [containing beef extract (3 g), acid hydrolysate of casein (17.5 g), and starch (1.5 g); Becton Dickinson and Co.] in 1 L of water. To prepare MHBII agar, 14 g of agar (Bacto; Molar Chemicals) was added to 1 L of broth.
(§4) Bacterial strains were inoculated onto MHBII agar plates and grown overnight at 37 °C. Next, three individual colonies from each strain were inoculated into 1 mL of MHBII medium and propagated at 37 °C overnight, with agitation at 250 rpm. For Enterococcus sp., the cells were plated in brain–heart infusion [(BHI) medium] agar plates, and BHI broth was used to determine the MICs. […] The highest final DMSO concentration in the experiments was 0.64% (in the case of the 64 μg/mL concentration of the inhibitor). Following the dilutions, each well was seeded with 5 × 10^4 bacterial cells (in 100 μL final volume). Each measurement was performed in three parallel replicates, and to avoid possible edge effects in the microwell plates, the outside rows (A, H) were filled with sterile medium. Following the inoculations, the plates were covered with the lids and wrapped in polyethylene plastic bags, to minimize evaporation but to allow O2 transfer. The plates were incubated at 37 °C under continuous shaking at 150 rpm for 18 h. After incubation, the OD600 of each well was measured using a microplate reader (Synergy 2; Biotek). The MICs were defined as the antibiotic concentrations which inhibited the growth of the bacterial cultures; that is, the drug concentration where the average OD600 increment of the three technical replicates was below 1.5-fold the background OD increment.
On the technique in general: Broth dilution looks for growth in wells or tubes with falling amounts of substance.

The subject of assay [3] is E. faecium ATCC 700221. Description: MIC broth microdilution (CLSI). It counts as cell-based. The conditions noted are these: Enterococcus faecium, ATCC700221; read-out: MIC. The method, then: as §3, §4
The test system of assay [4] is S. aureus (VISA) ATCC 700699. Briefly: MIC broth microdilution (CLSI). The conditions noted are these: Staphylococcus aureus; read-out: MIC. The class given is cell-based. The method, then:
as §3, §4

Assay [5] concerns E. coli ATCC 25922. Description: MIC broth microdilution (CLSI). The class given is cell-based. The note with it: Escherichia coli, ATCC25922; read-out: MIC. The method, then:
as §3, §4

Assay [6] deals with S. aureus (MRSA) ATCC 43300. Description: MIC broth microdilution (CLSI). The class given is cell-based. The conditions noted are these: Staphylococcus aureus. The procedure: as §3, §4
The target in assay [7] is T2, DNA gyrase from E. coli (Escherichia coli, UniProt P0AES6).
T2 construct: purchased Inspiralis
Briefly: supercoiling HTS plate assay. The note with it: IC50 [nM] E. coli DNA gyrase. The class given is biochemical. The method, then:
as §1, §2

In assay [8] the test system is A. baumannii ATCC 19606. Briefly: MIC broth microdilution (CLSI). The class given is cell-based. The note with it: Acinetobacter baumannii, ATCC19606. The procedure: as §3, §4
(§5) cMIC, minimum inhibitory concentration
(§6) Bacterial strains that were used: S. aureus ATCC 29213, S. aureus (MRSA) ATCC 43300, S. aureus (VISA) ATCC 700699, E. faecalis ATCC 29212, E. faecium ATCC 700221,
(§7) E. coli ATCC 25922, P. aeruginosa ATCC 27853 (PAO1 for compounds 7l, 8b, 14), A. baumannii ATCC 17978 (ATCC 19606 for compounds 7l, 8b, 14), K. pneumoniae ATCC
(§8) Measurements were performed according to the Clinical and Laboratory Standards Institute guidelines, with three independent measurements.

Assay [9] relates to K. pneumoniae ATCC 13883. Briefly: MIC broth microdilution (CLSI). It counts as cell-based. The note with it: Klebsiella pneumoniae, ATCC13883; ATCC 13883 used for 7l, 8b, 14, 16b, 16c. The method, then: as §3, §4, §5, §6, §7, §8
Assay [10] has as its system P. aeruginosa PAO1. Briefly: MIC broth microdilution (CLSI). The class given is cell-based. The conditions noted are these: Pseudomonas aeruginosa; PAO1 used for 7l, 8b, 14, 16b, 16c. The procedure: as §3, §4, §5, §6, §7, §8
Assay [11] deals with S. aureus ATCC 29213. Briefly: MIC broth microdilution (CLSI). The note with it: Staphylococcus aureus, ATCC29213. It counts as cell-based. The method, then: Cation-adjusted Mueller Hinton broth 2 (MHBII) was used for bacterial growth under standard laboratory conditions and for antimicrobial susceptibility tests. MHBII broth was prepared by dissolving 22 g of MHBII powder [containing beef extract (3 g), acid hydrolysate of casein (17.5 g), and starch (1.5 g); Becton Dickinson and Co.] in 1 L of water. To prepare MHBII agar, 14 g of agar (Bacto; Molar Chemicals) was added to 1 L of broth.
Bacterial strains were inoculated onto MHBII agar plates and grown overnight at 37 °C. Next, three individual colonies from each strain were inoculated into 1 mL of MHBII medium and propagated at 37 °C overnight, with agitation at 250 rpm. For Enterococcus sp., the cells were plated in brain–heart infusion [(BHI) medium] agar plates, and BHI broth was used to determine the MICs. […] Following the dilutions, each well was seeded with 5 × 10^4 bacterial cells (in 100 μL final volume). Each measurement was performed in three parallel replicates, and to avoid possible edge effects in the microwell plates, the outside rows (A, H) were filled with sterile medium. Following the inoculations, the plates were covered with the lids and wrapped in polyethylene plastic bags, to minimize evaporation but to allow O2 transfer. […] After incubation, the OD600 of each well was measured using a microplate reader (Synergy 2; Biotek).

Each structure is given as a SMILES string. Like-named read-outs stand apart in the source and are kept apart here. Some results are limits rather than exact numbers.

Consider `Cc1[nH]c(C(=O)Nc2nc3c(N4CC[C@H](N(C)C)C4)cc(C(=O)O)cc3s2)c(Cl)c1Cl.Cl.N` [7l, (S)-2-(3,4-Dichloro-5-methyl-1H-pyrrole-2-carboxamido)-4-(3-(dimethylamino)pyrrolidin-1-yl)benzo[d]thiazole-6-carboxylic Acid], for which the results for the IC50 in [1] and in [7] were 210 ± 80 nM and less than 10 nM, respectively. Moreover, the MIC in [2] was 1 µg/mL; in assay [3], 0.25 µg/mL; in assay [4] it was 0.5 µg/mL; in [5], greater than 64 µg/mL; in assay [6] (read-out: MIC), 2 µg/mL; in assay [6] (read-out: MIC [µg/mL](S. aureus MRSA ATCC4330)), 2 µg/mL. In addition, the MIC in assay [8] (ATCC 19606 used for 7l, 8b, 14, 16b, 16c, read-out: MIC) was greater than 64 µg/mL; in assay [8] (read-out: MIC [µg/mL] (A. baumannii ATCC 19606 for compounds 7l, 8b, 14)) it was greater than 64 µg/mL; in assay [9], greater than 64 µg/mL; in assay [10], greater than 64 µg/mL; in [11] (read-out: MIC) it was 4 µg/mL; in [11] (read-out: MIC [µg/mL](S. aureus ATCC 29213)), 4 µg/mL.
